Paper PMC8596578, “Structural Basis for The Recognition of Deaminated Nucleobases by An Archaeal DNA Polymerase” (Chembiochem, 2021)

Target: T1, KOD DNA polymerase (exonuclease deficient mutant D141A, E143A) (Thermococcus kodakarensis, UniProt P77933, D141A/E143A)
T1 construct: gene pol; exonuclease-deficient polymerase, codon-optimized, pET24a (NdeI/NotI), E. coli BL21(DE3); intein-free mature protein
Experiment: X-ray crystal structure of closed ternary complex
Type: binding
Details: primer/template DNA (21 nt template, with canonical bases in KOD-21nt or uracil at +6 in KOD-U); polymerase active site, Mg2+ and Mn2+; pH 7.5 (KOD-21nt) or 6.5 (KOD-U)

## Nc1ncnc2c1ncn2[C@H]1C[C@H](O)[C@@H](COP(=O)(O)OP(=O)(O)OP(=O)(O)O)O1 [dATP]
  X-ray crystal structure of closed ternary complex: closed ternary complex, with dATP and three metal ions
